From the supplement of paper PMC10307832

What was measured:
Assay in all cases: relative viability (nuclei count vs DMSO), 5 days (fraction); higher = more cells survive
[1] = test system: NCI-H1993
Method in brief: (§1)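 Lung cancer cell lines in 1536-well plates got either a single drug or a fixed anchor-drug dose together with five library-drug doses (not always all listed) in √10 steps, by pin tool, on the day after seeding. Nuclei were counted after 5 days, and relative viability is the treated-to-vehicle ratio of nuclei counts. Values are medians of duplicate plates.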

[2] = test system: EBC-1
Method in brief: as §1

[3] = test system: IA-LM
Method in brief: as §1

[4] = test system: NCI-H23
Method in brief: as §1

[5] = test system: NCI-H1703
Method in brief: as §1

[6] = test system: NCI-H596
Method in brief: as §1

[7] = test system: LCLC-97TM1
Method in brief: as §1

[8] = test system: NCI-H1299
Method in brief: as §1

[9] = test system: UMC-11
Method in brief: as §1

[10] = test system: NCI-H1355
Method in brief: as §1

[11] = test system: NCI-H322M
Method in brief: as §1

[12] = test system: Calu-6
Method in brief: as §1

Q: How did the relative viability ([1]; first compound 0.253 µM) turn out when COc1nc(C)cnc1NS(=O)(=O)c1cccnc1-c1ccc(-c2nnco2)cc1 [Zibotentan] + CC(C)C[C@H](NC(=O)[C@H](Cc1ccccc1)NC(=O)c1cnccn1)B(O)O [Bortezomib] (partner 0.002 µM) was run?
A: The relative viability was 1.05.

Q: What about the relative viability ([1]; first compound 0.8 µM) of the same compound?
A: The relative viability was 0.994.

Q: And the relative viability ([1]; first compound 2.53 µM)?
A: Its relative viability is 1.8.

Q: And the relative viability ([2]; first compound 0.08 µM)?
A: Its relative viability is 0.704.

Q: What about the relative viability ([2]; first compound 0.253 µM) of the same compound?
A: Its relative viability is 0.566.

Q: And the relative viability ([2]; first compound 0.8 µM)?
A: Its relative viability is 0.584.

Q: What about the relative viability ([2]; first compound 2.53 µM) of the same compound?
A: The relative viability was 0.592.

Q: And the relative viability ([3]; first compound 0.08 µM)?
A: Its relative viability is 0.791.

Q: And the relative viability ([3]; first compound 0.253 µM)?
A: The relative viability was 0.758.

Q: And the relative viability ([3]; first compound 0.8 µM)?
A: Its relative viability is 0.709.

Q: And the relative viability ([3]; first compound 2.53 µM)?
A: Its relative viability is 0.828.

Q: And the relative viability ([4]; first compound 0.08 µM)?
A: The relative viability was 1.25.

Q: What about the relative viability ([4]; first compound 0.253 µM) of the same compound?
A: The relative viability was 1.1.

Q: What about the relative viability ([4]; first compound 0.8 µM) of the same compound?
A: Its relative viability is 0.999.

Q: And the relative viability ([4]; first compound 2.53 µM)?
A: Its relative viability is 1.29.

Q: What about the relative viability ([5]; first compound 0.08 µM) of the same compound?
A: The relative viability was 0.512.

Q: What about the relative viability ([5]; first compound 0.253 µM) of the same compound?
A: The relative viability was 0.372.

Q: And the relative viability ([5]; first compound 0.8 µM)?
A: The relative viability was 0.38.

Q: What about the relative viability ([5]; first compound 2.53 µM) of the same compound?
A: Its relative viability is 0.346.

Q: What about the relative viability ([6]; first compound 0.08 µM) of the same compound?
A: The relative viability was 0.966.

Q: And the relative viability ([6]; first compound 0.253 µM)?
A: The relative viability was 0.935.

Q: And the relative viability ([6]; first compound 0.8 µM)?
A: Its relative viability is 1.06.

Q: What about the relative viability ([6]; first compound 2.53 µM) of the same compound?
A: The relative viability was 1.31.

Q: And the relative viability ([7]; first compound 0.08 µM)?
A: Its relative viability is 0.631.

Q: What about the relative viability ([7]; first compound 0.8 µM) of the same compound?
A: The relative viability was 0.657.

Q: And the relative viability ([7]; first compound 2.53 µM)?
A: Its relative viability is 0.688.

Q: What about the relative viability ([8]; first compound 0.08 µM) of the same compound?
A: Its relative viability is 0.999.

Q: And the relative viability ([8]; first compound 0.253 µM)?
A: The relative viability was 0.998.

Q: What about the relative viability ([8]; first compound 0.8 µM) of the same compound?
A: The relative viability was 0.965.

Q: What about the relative viability ([8]; first compound 2.53 µM) of the same compound?
A: The relative viability was 1.08.

Q: And the relative viability ([9]; first compound 0.08 µM)?
A: The relative viability was 0.601.

Q: And the relative viability ([9]; first compound 0.253 µM)?
A: Its relative viability is 0.623.

Q: And the relative viability ([9]; first compound 0.8 µM)?
A: Its relative viability is 0.668.

Q: And the relative viability ([9]; first compound 2.53 µM)?
A: Its relative viability is 0.909.

Q: What about the relative viability ([10]; first compound 0.08 µM) of the same compound?
A: Its relative viability is 1.2.

Q: What about the relative viability ([10]; first compound 0.253 µM) of the same compound?
A: Its relative viability is 1.36.

Q: What about the relative viability ([10]; first compound 0.8 µM) of the same compound?
A: The relative viability was 1.05.

Q: What about the relative viability ([10]; first compound 2.53 µM) of the same compound?
A: The relative viability was 1.24.

Q: What about the relative viability ([11]; first compound 0.08 µM) of the same compound?
A: Its relative viability is 1.05.

Q: And the relative viability ([11]; first compound 0.253 µM)?
A: The relative viability was 1.22.

Q: And the relative viability ([11]; first compound 0.8 µM)?
A: The relative viability was 1.18.

Q: And the relative viability ([11]; first compound 2.53 µM)?
A: The relative viability was 1.34.

Q: What about the relative viability ([12]; first compound 0.08 µM) of the same compound?
A: Its relative viability is 0.929.

Q: What about the relative viability ([12]; first compound 0.253 µM) of the same compound?
A: Its relative viability is 0.888.

Q: And the relative viability ([12]; first compound 0.8 µM)?
A: Its relative viability is 1.02.

Q: What about the relative viability ([12]; first compound 2.53 µM) of the same compound?
A: The relative viability was 1.06.

Q: For O=c1cc(-c2cccc3c2Sc2ccccc2S3)oc(N2CCOCC2)c1 + CC(C)C[C@H](NC(=O)[C@H](Cc1ccccc1)NC(=O)c1cnccn1)B(O)O [Bortezomib] (partner 0.002 µM), which relative viability ([1]; first compound 0.08 µM) is on record?
A: Its relative viability is 1.12.

Q: And the relative viability ([1]; first compound 0.253 µM)?
A: Its relative viability is 1.21.

Q: What about the relative viability ([1]; first compound 0.8 µM) of the same compound?
A: The relative viability was 0.972.

Q: And the relative viability ([1]; first compound 2.53 µM)?
A: Its relative viability is 1.04.

Q: And the relative viability ([1]; first compound 8 µM)?
A: Its relative viability is 1.2.

Q: What about the relative viability ([2]; first compound 0.08 µM) of the same compound?
A: The relative viability was 0.602.

Q: And the relative viability ([2]; first compound 0.253 µM)?
A: Its relative viability is 0.535.

Q: And the relative viability ([2]; first compound 0.8 µM)?
A: The relative viability was 0.546.

Q: What about the relative viability ([2]; first compound 2.53 µM) of the same compound?
A: The relative viability was 0.424.

Q: And the relative viability ([2]; first compound 8 µM)?
A: Its relative viability is 0.448.

Q: And the relative viability ([3]; first compound 0.08 µM)?
A: The relative viability was 0.833.

Q: What about the relative viability ([3]; first compound 0.253 µM) of the same compound?
A: The relative viability was 0.946.

Q: What about the relative viability ([3]; first compound 0.8 µM) of the same compound?
A: The relative viability was 0.799.

Q: What about the relative viability ([3]; first compound 2.53 µM) of the same compound?
A: The relative viability was 0.949.

Q: And the relative viability ([3]; first compound 8 µM)?
A: The relative viability was 0.905.

Q: And the relative viability ([4]; first compound 0.08 µM)?
A: Its relative viability is 0.948.

Q: What about the relative viability ([4]; first compound 0.253 µM) of the same compound?
A: Its relative viability is 1.16.

Q: What about the relative viability ([4]; first compound 0.8 µM) of the same compound?
A: The relative viability was 1.25.

Q: What about the relative viability ([4]; first compound 2.53 µM) of the same compound?
A: The relative viability was 0.914.

Q: What about the relative viability ([4]; first compound 8 µM) of the same compound?
A: Its relative viability is 1.09.

Q: And the relative viability ([5]; first compound 0.253 µM)?
A: The relative viability was 0.356.

Q: And the relative viability ([5]; first compound 0.8 µM)?
A: The relative viability was 0.384.

Q: And the relative viability ([5]; first compound 2.53 µM)?
A: The relative viability was 0.346.

Q: And the relative viability ([5]; first compound 8 µM)?
A: The relative viability was 0.285.

Q: And the relative viability ([6]; first compound 0.08 µM)?
A: Its relative viability is 0.985.

Q: And the relative viability ([6]; first compound 0.253 µM)?
A: The relative viability was 1.18.

Q: And the relative viability ([6]; first compound 0.8 µM)?
A: The relative viability was 0.959.

Q: What about the relative viability ([6]; first compound 2.53 µM) of the same compound?
A: The relative viability was 0.745.

Q: And the relative viability ([6]; first compound 8 µM)?
A: The relative viability was 1.14.

Q: What about the relative viability ([7]; first compound 0.08 µM) of the same compound?
A: The relative viability was 0.732.

Q: What about the relative viability ([7]; first compound 0.253 µM) of the same compound?
A: The relative viability was 0.387.

Q: And the relative viability ([7]; first compound 0.8 µM)?
A: The relative viability was 0.528.

Q: And the relative viability ([7]; first compound 2.53 µM)?
A: The relative viability was 0.344.

Q: What about the relative viability ([7]; first compound 8 µM) of the same compound?
A: Its relative viability is 1.16.

Q: What about the relative viability ([8]; first compound 0.08 µM) of the same compound?
A: Its relative viability is 1.02.

Q: And the relative viability ([8]; first compound 0.253 µM)?
A: The relative viability was 1.02.

Q: And the relative viability ([8]; first compound 0.8 µM)?
A: The relative viability was 1.05.

Q: What about the relative viability ([8]; first compound 2.53 µM) of the same compound?
A: The relative viability was 0.997.

Q: And the relative viability ([8]; first compound 8 µM)?
A: Its relative viability is 1.01.

Q: And the relative viability ([9]; first compound 0.08 µM)?
A: The relative viability was 0.774.

Q: What about the relative viability ([9]; first compound 0.253 µM) of the same compound?
A: The relative viability was 1.19.

Q: What about the relative viability ([9]; first compound 0.8 µM) of the same compound?
A: The relative viability was 1.24.

Q: And the relative viability ([9]; first compound 2.53 µM)?
A: Its relative viability is 0.535.

Q: And the relative viability ([9]; first compound 8 µM)?
A: Its relative viability is 1.01.

Q: And the relative viability ([10]; first compound 0.08 µM)?
A: The relative viability was 1.25.

Q: What about the relative viability ([10]; first compound 0.253 µM) of the same compound?
A: The relative viability was 1.35.

Q: What about the relative viability ([10]; first compound 0.8 µM) of the same compound?
A: Its relative viability is 1.22.

Q: What about the relative viability ([10]; first compound 2.53 µM) of the same compound?
A: Its relative viability is 1.16.

Q: What about the relative viability ([10]; first compound 8 µM) of the same compound?
A: The relative viability was 1.3.

Q: What about the relative viability ([11]; first compound 0.08 µM) of the same compound?
A: Its relative viability is 1.21.

Q: What about the relative viability ([11]; first compound 0.253 µM) of the same compound?
A: The relative viability was 1.21.

Q: And the relative viability ([11]; first compound 0.8 µM)?
A: The relative viability was 1.2.

Q: And the relative viability ([11]; first compound 2.53 µM)?
A: The relative viability was 1.04.

Q: What about the relative viability ([11]; first compound 8 µM) of the same compound?
A: Its relative viability is 1.17.

Q: And the relative viability ([12]; first compound 0.08 µM)?
A: The relative viability was 0.91.

Q: And the relative viability ([12]; first compound 0.253 µM)?
A: Its relative viability is 1.02.

Q: What about the relative viability ([12]; first compound 0.8 µM) of the same compound?
A: The relative viability was 1.01.

Q: What about the relative viability ([12]; first compound 2.53 µM) of the same compound?
A: The relative viability was 0.974.

Q: What about the relative viability ([12]; first compound 8 µM) of the same compound?
A: The relative viability was 0.976.
